Assay results published in patent US11564927B2, “Therapeutic compositions, combinations, and methods of use” (Verastem, Inc., priority 2015, dated 2023).

Legend:
[1] = test system: Primary human CD8+ T-cells; assay: CD8+ T-cell proliferation, BrdU incorporation; assay type: cell-based; conditions: 72 hours, anti-CD3/anti-CD28 coated beads, BrdU incorporation (FIG. 1)
Method: Primary human CD8+ T-cells isolated from healthy donor PBMCs were incubated in the presence of anti-CD^3/anti-CD28 coated beads with increasing concentrations of VS-4718 or VS-6063 for 72-hours and assayed for BrdU incorporation as a measure of new DNA synthesis.
CD8+ T cells were isolated from fresh, healthy human PBMCs by negative immunomagnetic bead separation. Purified CD8+ T cells were plated on CD3-coated plates in the presence or absence of VS-4718, VS-6063, or GSK2256098 for 72 hours. Assay wells were pulsed with BrdU for the last 3-4 hours of culture and subjected to a BrdU-incorporation assay for the determination of actively proliferating cells. Data shown in FIG. 5 are presented as fold-change vs. DMSO control wells.

[2] = test system: syngeneic MC38 colorectal tumors; assay: Survival of mice bearing MC38 colorectal tumors; assay type: in vivo, mouse
Method: Based on the inhibition of tumor-associated macrophages and enhancement of CD8+ T-cells, potentiation of FAK/PYK2 inhibitors on the anti-tumor efficacy of an anti-PD-1 monoclonal antibody in syngeneic mouse tumor models was investigated. Mice bearing established syngeneic MC38 colorectal tumors were treated with VS-4718 for 5 days before combination treatment with anti-PD1 antibody along with continued VS-4718 administration. Combination of VS-4718 with anti-PD1 extended the median overall survival to 42 days relative to 21, 25 and 28 day median overall survival with vehicle control, single agent anti-PD-1 and single agent VS-4718, respectively (FIG. 2).

| SMILES | proliferation of CD8+ cytotoxic T-cells [1] | mice still surviving ([2]; day 56, MC38 model) | median overall survival ([2]; mice with established MC38 tumors, VS-4718 for 5 days before combination with anti-PD1 (FIG. 2)) [days] |
| --- | --- | --- | --- |
| CNC(=O)c1ccccc1Nc1cc(Nc2ccc(N3CCOCC3)cc2OC)ncc1C(F)(F)F [VS-4718] | stimulate proliferation | no surviving mice | 28 |
| Cc1nc(Nc2ncc(C(=O)Nc3c(C)cccc3Cl)s2)cc(N2CCN(CCO)CC2)n1 [dasatinib] | potently impair the proliferation | – | – |
| CC(=O)Nc1cccc(-n2c(=O)n(C3CC3)c(=O)c3c(Nc4ccc(I)cc4F)n(C)c(=O)c(C)c32)c1 [trametinib] | potently impair the proliferation | – | – |
